Relative viability data for 13 cell lines are collected here from the supplement of paper PMC10307832.

Assay in all cases: relative viability (nuclei count vs DMSO), 5 days (fraction); higher = more cells survive
Compound in the assay “Ponatinib + Luminespib”: Cc1ccc(C(=O)Nc2ccc(CN3CCN(C)CC3)c(C(F)(F)F)c2)cc1C#Cc1cnc2cccnn12 [Ponatinib] + CCNC(=O)c1noc(-c2cc(C(C)C)c(O)cc2O)c1-c1ccc(CN2CCOCC2)cc1 [Luminespib] (partner 0.01 µM)
The procedure, abridged:
(§1)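 Relative viability was taken as the ratio of nuclei in treated wells to nuclei in vehicle wells. Lung cancer cell lines in 1536-well plates received compounds by pin tool one day after seeding, either one drug alone or a fixed anchor-drug dose plus five library-drug doses (not always all listed) in √10 steps. Nuclei were counted on 4× images after 5 days of treatment, and values are medians of duplicate plates.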

Compound in the assay “Pazopanib + Linsitinib”: Cc1ccc(Nc2nccc(N(C)c3ccc4c(C)n(C)nc4c3)n2)cc1S(N)(=O)=O [Pazopanib] + C[C@]1(O)C[C@@H](c2nc(-c3ccc4ccc(-c5ccccc5)nc4c3)c3c(N)nccn32)C1 [Linsitinib] (partner 1 µM)
Summed up: as §1

Compound in the assay “Ponatinib + Olaparib”: Cc1ccc(C(=O)Nc2ccc(CN3CCN(C)CC3)c(C(F)(F)F)c2)cc1C#Cc1cnc2cccnn12 [Ponatinib] + O=C(c1cc(Cc2n[nH]c(=O)c3ccccc23)ccc1F)N1CCN(C(=O)C2CC2)CC1 [Olaparib] (partner 8 µM)
The procedure, abridged: as §1

Compound in the assay “Pazopanib + Decitabine”: Cc1ccc(Nc2nccc(N(C)c3ccc4c(C)n(C)nc4c3)n2)cc1S(N)(=O)=O [Pazopanib] + Nc1ncn([C@H]2C[C@H](O)[C@@H](CO)O2)c(=O)n1 [Decitabine] (partner 2 µM)
Summed up:
as §1

Take NCI-H23: the relative viability with Ponatinib + Luminespib (first compound 0.006325 µM) was determined as 0.22; with Ponatinib + Luminespib (first compound 0.06325 µM) it was 0.211; with Ponatinib + Luminespib (first compound 0.2 µM), 0.196; in the assay with Pazopanib + Linsitinib (first compound 0.01 µM), 0.505; in the assay with Pazopanib + Linsitinib (first compound 0.03162 µM) it was 0.629; with Pazopanib + Linsitinib (first compound 0.1 µM), 0.556. In addition, the relative viability with Pazopanib + Linsitinib (first compound 0.3162 µM) amounted to 0.567; with Pazopanib + Linsitinib (first compound 1 µM), 0.842; with Ponatinib + Olaparib (first compound 0.002 µM), 0.327; in the assay with Ponatinib + Olaparib (first compound 0.006325 µM), 0.343; with Ponatinib + Olaparib (first compound 0.06325 µM) it was 0.466; with Ponatinib + Olaparib (first compound 0.2 µM), 0.328. Also, the relative viability was 0.308 with Pazopanib + Decitabine (first compound 0.01 µM); 0.309 with Pazopanib + Decitabine (first compound 0.03162 µM); 0.341 with Pazopanib + Decitabine (first compound 0.1 µM); 0.376 with Pazopanib + Decitabine (first compound 0.3162 µM); 0.335 in the assay with Pazopanib + Decitabine (first compound 1 µM).
In the case of NCI-H322M, the relative viability in the assay with Ponatinib + Luminespib (first compound 0.002 µM) turned out to be 1; with Ponatinib + Luminespib (first compound 0.006325 µM), 1; in the assay with Ponatinib + Luminespib (first compound 0.06325 µM), 0.843; in the assay with Ponatinib + Luminespib (first compound 0.2 µM), 0.716; with Pazopanib + Linsitinib (first compound 0.01 µM) it was 0.772; in the assay with Pazopanib + Linsitinib (first compound 0.03162 µM), 1.06. In addition, the relative viability with Pazopanib + Linsitinib (first compound 0.1 µM) came out at 0.899; in the assay with Pazopanib + Linsitinib (first compound 0.3162 µM), 1.05; in the assay with Pazopanib + Linsitinib (first compound 1 µM), 0.972; with Ponatinib + Olaparib (first compound 0.002 µM) it was 0.787; with Ponatinib + Olaparib (first compound 0.006325 µM), 0.729; with Ponatinib + Olaparib (first compound 0.06325 µM) it was 0.739. The relative viability with Ponatinib + Olaparib (first compound 0.2 µM) worked out at 0.649; with Pazopanib + Decitabine (first compound 0.01 µM) it was 0.696; with Pazopanib + Decitabine (first compound 0.03162 µM) it was 0.748; with Pazopanib + Decitabine (first compound 0.1 µM), 0.71; in the assay with Pazopanib + Decitabine (first compound 0.3162 µM), 0.8; in the assay with Pazopanib + Decitabine (first compound 1 µM), 0.754.
With NCI-H522, the relative viability came to 1.17 with Ponatinib + Luminespib (first compound 0.002 µM); 1.3 in the assay with Ponatinib + Luminespib (first compound 0.006325 µM); 1.18 in the assay with Ponatinib + Luminespib (first compound 0.06325 µM); 1.09 with Ponatinib + Luminespib (first compound 0.2 µM); 0.731 with Ponatinib + Olaparib (first compound 0.002 µM); 0.708 with Ponatinib + Olaparib (first compound 0.006325 µM). Besides, the relative viability with Ponatinib + Olaparib (first compound 0.06325 µM) turned out to be 0.632; in the assay with Ponatinib + Olaparib (first compound 0.2 µM) it was 0.507; with Pazopanib + Decitabine (first compound 0.01 µM), 0.658; with Pazopanib + Decitabine (first compound 0.03162 µM) it was 0.666; with Pazopanib + Decitabine (first compound 0.1 µM) it was 0.817; with Pazopanib + Decitabine (first compound 0.3162 µM), 0.73. Further, in the assay with Pazopanib + Decitabine (first compound 1 µM), the relative viability came out at 0.673.
For NCI-H1299, the relative viability in the assay with Pazopanib + Linsitinib (first compound 0.01 µM) is 0.902; in the assay with Pazopanib + Linsitinib (first compound 0.03162 µM), 1.02; with Pazopanib + Linsitinib (first compound 0.1 µM), 1.01; in the assay with Pazopanib + Linsitinib (first compound 0.3162 µM), 0.97; with Pazopanib + Linsitinib (first compound 1 µM), 0.932; with Ponatinib + Olaparib (first compound 0.002 µM), 0.981. Besides, the relative viability in the assay with Ponatinib + Olaparib (first compound 0.006325 µM) turned out to be 0.955; with Ponatinib + Olaparib (first compound 0.06325 µM), 0.938; with Ponatinib + Olaparib (first compound 0.2 µM), 0.876.
In the case of NCI-H1563, the relative viability with Ponatinib + Luminespib (first compound 0.002 µM) is 0.48; with Ponatinib + Luminespib (first compound 0.006325 µM), 0.535; in the assay with Ponatinib + Luminespib (first compound 0.06325 µM), 0.595; with Ponatinib + Luminespib (first compound 0.2 µM) it was 0.476; with Pazopanib + Linsitinib (first compound 0.01 µM), 1.13; with Pazopanib + Linsitinib (first compound 0.03162 µM), 1.18. Besides, the relative viability came to 1.25 with Pazopanib + Linsitinib (first compound 0.1 µM), 1.3 in the assay with Pazopanib + Linsitinib (first compound 0.3162 µM) and 1.18 with Pazopanib + Linsitinib (first compound 1 µM).
Turning to NCI-H1623, the relative viability was 0.372 in the assay with Ponatinib + Luminespib (first compound 0.002 µM), 0.484 with Ponatinib + Luminespib (first compound 0.006325 µM), 0.491 with Ponatinib + Luminespib (first compound 0.06325 µM) and 0.426 with Ponatinib + Luminespib (first compound 0.2 µM).
In the case of NCI-H1648, the relative viability with Ponatinib + Olaparib (first compound 0.002 µM) turned out to be 0.49; with Ponatinib + Olaparib (first compound 0.006325 µM), 0.897; with Ponatinib + Olaparib (first compound 0.06325 µM) it was 0.572; in the assay with Ponatinib + Olaparib (first compound 0.2 µM) it was 0.51; in the assay with Pazopanib + Decitabine (first compound 0.1 µM), 0.528; with Pazopanib + Decitabine (first compound 0.3162 µM), 0.568. For the same cell line, in the assay with Pazopanib + Decitabine (first compound 1 µM), the relative viability is 0.46.
NCI-H1650: the relative viability with Ponatinib + Luminespib (first compound 0.002 µM) stood at 0.255; in the assay with Ponatinib + Luminespib (first compound 0.006325 µM), 0.236; in the assay with Ponatinib + Luminespib (first compound 0.06325 µM) it was 0.2; in the assay with Ponatinib + Luminespib (first compound 0.2 µM) it was 0.186; in the assay with Ponatinib + Olaparib (first compound 0.002 µM) it was 0.919; in the assay with Ponatinib + Olaparib (first compound 0.006325 µM), 0.884. Besides, the relative viability in the assay with Ponatinib + Olaparib (first compound 0.06325 µM) was determined as 0.916; in the assay with Ponatinib + Olaparib (first compound 0.2 µM), 0.751; with Pazopanib + Decitabine (first compound 0.01 µM), 0.431; in the assay with Pazopanib + Decitabine (first compound 0.03162 µM) it was 0.419; with Pazopanib + Decitabine (first compound 0.1 µM), 0.464; in the assay with Pazopanib + Decitabine (first compound 0.3162 µM) it was 0.405. Besides, the relative viability with Pazopanib + Decitabine (first compound 1 µM) came to 0.603.
With NCI-H1703, the relative viability with Pazopanib + Linsitinib (first compound 0.01 µM) is 0.441; with Pazopanib + Linsitinib (first compound 0.1 µM), 0.264; in the assay with Pazopanib + Linsitinib (first compound 0.3162 µM), 0.243; with Pazopanib + Linsitinib (first compound 1 µM), 0.301; with Ponatinib + Olaparib (first compound 0.002 µM), 0.37; in the assay with Ponatinib + Olaparib (first compound 0.006325 µM), 0.449. Also, the relative viability came out at 0.262 in the assay with Ponatinib + Olaparib (first compound 0.06325 µM) and 0.207 in the assay with Ponatinib + Olaparib (first compound 0.2 µM).
Regarding NCI-H2170, the relative viability with Ponatinib + Luminespib (first compound 0.002 µM) was determined as 0.671; in the assay with Ponatinib + Luminespib (first compound 0.006325 µM) it was 0.697; with Ponatinib + Luminespib (first compound 0.06325 µM), 0.665; with Ponatinib + Luminespib (first compound 0.2 µM), 0.646; with Ponatinib + Olaparib (first compound 0.002 µM), 0.583; in the assay with Ponatinib + Olaparib (first compound 0.006325 µM), 0.599. Further, the relative viability with Ponatinib + Olaparib (first compound 0.06325 µM) amounted to 0.631; in the assay with Ponatinib + Olaparib (first compound 0.2 µM), 0.639; with Pazopanib + Decitabine (first compound 0.01 µM) it was 0.47; in the assay with Pazopanib + Decitabine (first compound 0.03162 µM) it was 0.467; in the assay with Pazopanib + Decitabine (first compound 0.1 µM), 0.453; with Pazopanib + Decitabine (first compound 0.3162 µM), 0.449. In addition, in the assay with Pazopanib + Decitabine (first compound 1 µM), the relative viability was found to be 0.428.
In the case of NCI-H2228, the relative viability is 0.134 in the assay with Ponatinib + Luminespib (first compound 0.002 µM); 0.178 in the assay with Ponatinib + Luminespib (first compound 0.006325 µM); 0.109 with Ponatinib + Luminespib (first compound 0.06325 µM); 0.129 with Ponatinib + Luminespib (first compound 0.2 µM); 0.741 in the assay with Pazopanib + Linsitinib (first compound 0.01 µM); 0.665 in the assay with Pazopanib + Linsitinib (first compound 0.03162 µM). Also, the relative viability is 0.792 in the assay with Pazopanib + Linsitinib (first compound 0.1 µM); 0.901 with Pazopanib + Linsitinib (first compound 0.3162 µM); 0.607 with Pazopanib + Linsitinib (first compound 1 µM); 0.622 in the assay with Ponatinib + Olaparib (first compound 0.002 µM); 0.57 with Ponatinib + Olaparib (first compound 0.006325 µM); 0.823 with Ponatinib + Olaparib (first compound 0.06325 µM). Moreover, the relative viability with Ponatinib + Olaparib (first compound 0.2 µM) came to 0.566.
In the case of NCI-H2342, the relative viability with Ponatinib + Luminespib (first compound 0.002 µM) worked out at 0.759; with Ponatinib + Luminespib (first compound 0.006325 µM), 0.701; in the assay with Ponatinib + Luminespib (first compound 0.06325 µM), 0.834; in the assay with Ponatinib + Luminespib (first compound 0.2 µM), 0.601; in the assay with Ponatinib + Olaparib (first compound 0.002 µM) it was 0.473; with Ponatinib + Olaparib (first compound 0.006325 µM) it was 0.483. Further, the relative viability in the assay with Ponatinib + Olaparib (first compound 0.06325 µM) came out at 0.424; in the assay with Ponatinib + Olaparib (first compound 0.2 µM), 0.467; with Pazopanib + Decitabine (first compound 0.01 µM), 0.678; in the assay with Pazopanib + Decitabine (first compound 0.03162 µM), 0.684; in the assay with Pazopanib + Decitabine (first compound 0.1 µM) it was 0.918; with Pazopanib + Decitabine (first compound 0.3162 µM) it was 0.612. The relative viability with Pazopanib + Decitabine (first compound 1 µM) stood at 0.697.
As for SW 900, the relative viability with Ponatinib + Luminespib (first compound 0.002 µM) was 0.179; in the assay with Ponatinib + Luminespib (first compound 0.006325 µM), 0.19; with Ponatinib + Luminespib (first compound 0.06325 µM), 0.243; in the assay with Ponatinib + Luminespib (first compound 0.2 µM), 0.204; in the assay with Ponatinib + Olaparib (first compound 0.002 µM) it was 0.958; in the assay with Ponatinib + Olaparib (first compound 0.006325 µM) it was 0.867. Also, the relative viability with Ponatinib + Olaparib (first compound 0.06325 µM) came out at 0.95; with Ponatinib + Olaparib (first compound 0.2 µM), 0.725; with Pazopanib + Decitabine (first compound 0.01 µM) it was 0.516; in the assay with Pazopanib + Decitabine (first compound 0.03162 µM), 0.453; with Pazopanib + Decitabine (first compound 0.3162 µM) it was 0.462; with Pazopanib + Decitabine (first compound 1 µM), 0.505.
